Results reported in patent publication US8450283B2, “Composition for treating cancer and use thereof” (National Taiwan University, priority 2008, dated 2013).
“Also recorded” adds a separate entry of the source. Where a SMILES comes first, the peptide text is derived from it. Bridges are numbered along the chain shown (N, C = ends).

Experiments:
NRP1 [1] = molecular target: T1, NRP1 (Homo sapiens, UniProt O14786); test: Surface plasmon resonance (Biacore) binding of selected peptides to NRP1; settings: 25° C., immobilized recombinant NRP1, read-out: ka
T1 construct: Recombinant soluble NRP1 (sNRP1) protein containing His6 and c-Myc domain tags was synthesized in NIH-3T3 murine fibroblast cells; His6; c-Myc; made in house; host or cells: NIH-3T3 fibroblast cells, secreted into medium, purified on Ni-NTA
T1 sequence (O14786 22-644 isoform O14786-2 limits assumed): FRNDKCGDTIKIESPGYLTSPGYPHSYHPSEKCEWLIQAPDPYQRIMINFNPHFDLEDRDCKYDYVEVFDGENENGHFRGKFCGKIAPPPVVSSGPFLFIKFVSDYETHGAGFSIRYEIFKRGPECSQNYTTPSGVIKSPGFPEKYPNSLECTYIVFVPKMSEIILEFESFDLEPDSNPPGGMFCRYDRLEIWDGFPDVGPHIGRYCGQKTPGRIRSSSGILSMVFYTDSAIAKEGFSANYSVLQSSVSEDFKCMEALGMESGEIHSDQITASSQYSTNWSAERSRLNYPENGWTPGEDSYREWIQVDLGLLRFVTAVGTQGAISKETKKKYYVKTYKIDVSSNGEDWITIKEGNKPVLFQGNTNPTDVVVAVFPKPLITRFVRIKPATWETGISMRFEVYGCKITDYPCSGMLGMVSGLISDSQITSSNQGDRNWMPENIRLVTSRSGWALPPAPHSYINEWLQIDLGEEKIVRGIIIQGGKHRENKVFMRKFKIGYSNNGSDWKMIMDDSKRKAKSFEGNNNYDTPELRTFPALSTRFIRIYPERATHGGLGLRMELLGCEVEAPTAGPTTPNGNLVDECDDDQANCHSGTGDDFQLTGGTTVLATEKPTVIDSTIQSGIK
Experimental: (§1) The binding kinetics of selected peptides with NRP1 were tested using the surface plasmon resonance based measuring system (Biacore AB) at 25° C. Recombinant NRP1 was immobilized on CM5 sensor chips by amine coupling at 400 response units using the amine coupling kit (Biacore) according to the manufacturer's instructions. Binding was detected in resonance units after injecting various concentrations of peptide at a flow rate of 30 μL/min. Sensograms of association and dissociation were recorded and analyzed using BIAevaluation software 3.0 (Biacore AB).

CL1-5 cells [2] = test: Cytotoxicity / cell viability of peptide-treated cancer cells; type: cell-based, human; settings: peptide treatment of cancer cells
CL1-5 cells [3] = test: In vitro invasion assay (modified Boyden chamber, Matrigel); type: cell-based, human; settings: 48 h, Matrigel-coated Transwell
Experimental: A modified Boyden chamber system was used to investigate the invasive capability of CL cells treated with selected peptides, sNRP1, and siRNA of NRP1 (Chu Y W, et al., Am J Respir Cell Mol Biol 1997, 17: 353-360). The polycarbonate membranes (containing 8-μm pores) of Transwell inserts were coated with Matrigel. The cells were suspended in RPMI 1640 containing 10% NuSerum (Life Science), and 2.5×10^4 cells were placed into the upper well of each chamber. After incubation for 48 h at 37° C., the Transwell membrane was fixed with methanol for 10 min at room temperature and stained with a 50 μg/mL solution of propidium iodide (Sigma) for 30 min at room temperature. The number of cells in each membrane was counted under a microscope at a magnification of ×50 using the Analytical Imaging Station software package (Imaging Research Inc.). Each sample was assayed in triplicate.

PI3K = test: Phosphoinositide-3-kinase activity assay in CL1-5 cells; type: cell-based, human; settings: 48 h after transfection, 1.3 nmol/L VEGF165, vs nonsilencing siRNA
Experimental: Phosphoinositide-3-kinase (PI3K) activities were assayed as described previously (Lin M T, et al., J Biol Chem 2001, 276: 48997-49002) with some modifications. In brief, CL1-5 cell extracts were incubated with the antiphosphotyrosine antibody and then precipitated with protein A-Sepharose. The immunocomplexes were preincubated with phosphatidylinositol-4,5-P2 (Sigma), and the kinase reaction was initiated by adding 10 μCi of [γ-^32P]ATP in reaction buffer for 15 min. Phospholipids were separated by TLC and visualized by phosphorimaging.

NRP1 [4] = test: NRP1 expression after siRNA transfection (Western blot); type: cell-based, human; settings: CL1-5 cells transfected with siRNA
CL1-5 cells [5] = test: Scratch wound healing migration assay; type: cell-based, human; settings: 24 h after scratch, 24 nmol/L siRNA
Experimental: Cell migration was measured by the in vitro scratch wound healing assay (Tamura M, et al., Science 1998, 280: 1614-1617). CL1-5 cells were transfected with 24 nmol/L siRNA-1 in 12-well plates. Twenty-four hours after transfection, cells were scratched with a yellow pipette tip and photographed 18, 21, and 24 h after the scratch. The cell migration at 0, 18, 21, and 24 h was evaluated by counting cells that had migrated from the wound edge.

human VEGF165 = molecular target: T2, human VEGF165 (Homo sapiens, UniProt P15692); test: Surface plasmon resonance binding of recombinant sNRP1 to VEGF165; settings: read-out: average dissociation constant (KD) of human VEGF165 binding to sNRP1
T2 construct: purchased PeproTech, Inc
T2 sequence (P15692 27-191 isoform P15692-4): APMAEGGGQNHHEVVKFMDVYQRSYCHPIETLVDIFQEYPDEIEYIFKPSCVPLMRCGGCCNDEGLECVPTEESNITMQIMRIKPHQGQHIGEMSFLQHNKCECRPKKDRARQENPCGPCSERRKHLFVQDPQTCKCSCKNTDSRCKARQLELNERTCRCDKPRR
Experimental: as §1

CL1-5 cells [6] = test: Filamentous actin staining (rhodamine-phalloidin); type: cell-based, human
Experimental: For filamentous actin (F-actin) staining, cells were seeded on coverslips in 24-well plates and allowed to attach for 24 h in medium containing 10% FCS. The cells were fixed, washed, and permeabilized in 0.1% Triton-X. The cells were incubated for 30 min with 5 units/mL of rhodamine-conjugated phalloidin (Molecular Probe) and mounted using Fluor Save reagent (Calbiochem). The slides were analyzed using a Zeiss Axioplan 2 microscope.

VEGFR2 = test: VEGF165-induced VEGFR2 phosphorylation in CL1-5 cells (immunoprecipitation / Western blot); type: cell-based, human
Experimental: VEGFR2 phosphorylation was assessed as previously described (Soker S, et al., J Cell Biochem 2002, 85:357-368). Briefly, CL1-5 cells were treated with a mixture of hVEGF and sNRP1 for 30 min on ice and then at 37° C. for 7 min. Cell lysates were immunoprecipitated with anti-VEGFR2 antibodies. For Western blotting, the membranes were first probed with anti-Flk-1 antibodies and then reprobed with anti-phospho-VEGFR2 antibodies 2/3(pc460) after being stripped with deblotting buffer. In the antiangiogenesis assay, HUVECs were pretreated with peptides for 10 min followed by treatment with VEGF for 5 min, and the cells were then immediately extracted with lysis buffer. Activation of Flk-1/KDR was determined by immunoblotting cell extracts with anti-Flk-1 antibodies and then reprobing with anti-phospho-VEGFR2 antibodies (pTyr^1214) after the membranes had been stripped with deblotting buffer.

Akt = test: VEGF165-induced Akt phosphorylation in CL1-5 cells (Western blot); type: cell-based, human; settings: 1.3 nmol/L VEGF165, 10 nmol/L sNRP1

Compound | kon (NRP1 [1]) | cytotoxicity / cell viability (CL1-5 cells [2]) | invasion ability of CL1-5 cells (in words) (CL1-5 cells [3]) | NRP1 expression (NRP1 [4]) | also measured
CSCC[C@@H]1NC(=O)[C@H](CCCNC(=N)N)NC(=O)[C@@H]2CCCN2C(=O)[C@H](CCCNC(=N)N)NC(=O)[C@H](CCCNC(=N)N)NC(=O)[C@@H](N)CSSC[C@@H](C(=O)O)NC(=O)[C@H]([C@@H](C)O)NC(=O)[C@H](CC(C)C)NC1=O [DG1, CRRPRMLTC] (H-CRRPRMLTC-OH; disulfide 1-9; N-terminus and C-terminus assumed) | 1230 M⁻¹ s⁻¹ | without affecting cell viability; also recorded: not cytotoxic |  |  | 
CC[C@H](C)[C@@H]1NC(=O)[C@H](CCCNC(=N)N)NC(=O)[C@H](CCCNC(=N)N)NC(=O)[C@H](CO)NC(=O)[C@H](CCCNC(=N)N)NC(=O)[C@@H](N)CSSC[C@@H](C(=O)O)NC(=O)[C@H](CC(C)C)NC(=O)[C@H](CCCNC(=N)N)NC1=O [DG2, CRSRRIRLC] (H-CRSRRIRLC-OH; disulfide 1-9; N-terminus and C-terminus assumed) | 123 ± 24 M⁻¹ s⁻¹ | not cytotoxic |  |  | 
AACACCTAGTGGAGTGATAAA [siRNA-1] |  |  | decreased the invasion ability of CL1-5 cells in a dose-dependent manner | Significant suppression | VEGF165-induced PI3K activation (PI3K): decreased; migration of CL1-5 cells (CL1-5 cells [5]): significantly inhibited
AACAGCCTTGAATGCACTTAT [siRNA-2] |  |  | decreased the invasion ability of CL1-5 cells in a dose-dependent manner | Significant suppression | 
sNRP1: Recombinant soluble NRP1 protein containing His6 and c-Myc domain tags, synthesized in NIH-3T3 cells |  |  | dose-dependent decrease |  | Kd (human VEGF165): 125 nM; F-actin polymerization and filopodia formation (CL1-5 cells [6]): inhibited F-actin polymerization and filopodia formation; VEGF165-induced VEGFR2 activation (VEGFR2; VEGF165 plus sNRP1): decreased by sNRP1 in a dose-dependent manner; VEGF165-induced VEGFR2 activation (VEGFR2; high concentrations of sNRP1): totally blocked; VEGF165-induced phosphorylation of Akt at Ser473 (Akt): decreased to less than one third
